Where a chain is given by its changes, count along the chain named.
Tests used:
[1] = biological target: T1, semisynthetic p300 HAT (wt p300 HAT) (Homo sapiens, UniProt Q09472); conditions: 20 μM acetyl-CoA, 100 μM H4-15 peptide, 7 min pre-incubation, 30°C
T1 sequence (Q09472 1287-1663 limits assumed): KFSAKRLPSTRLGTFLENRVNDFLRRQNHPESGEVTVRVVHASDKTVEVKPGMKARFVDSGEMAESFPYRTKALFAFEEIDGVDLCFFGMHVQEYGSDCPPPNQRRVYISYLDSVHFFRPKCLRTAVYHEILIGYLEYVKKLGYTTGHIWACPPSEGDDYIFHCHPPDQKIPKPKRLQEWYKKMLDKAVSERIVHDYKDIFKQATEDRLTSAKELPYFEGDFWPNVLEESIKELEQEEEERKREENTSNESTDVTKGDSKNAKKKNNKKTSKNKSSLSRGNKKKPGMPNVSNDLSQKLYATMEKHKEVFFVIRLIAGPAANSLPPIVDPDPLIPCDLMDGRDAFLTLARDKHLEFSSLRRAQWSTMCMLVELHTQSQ

p300 HAT = p300 HAT inhibitor; cited from earlier work
[2] = biological target: T2, D1625R/D1628R double mutant of p300 HAT (Homo sapiens, UniProt Q09472, D1625R/D1628R); assay: p300 HAT radioactive acetyltransferase inhibition assay, double mutant enzyme
T2 sequence (Q09472 1287-1663 D1625R/D1628R limits assumed): T1 sequence (Q09472 1287-1663 limits assumed) with D339R, D342R

IC50 [1]: 60 nM | IC50 ([2]; D1625R, D1628R p300 HAT, 20 μM acetyl-CoA, 100 μM H4-15 peptide): 209 ± 15 nM | fold weakening of IC50 with D1625R/D1628R p300 HAT compared with wt p300 HAT ([2]; double mutant vs wt): 3.5 fold
SMILES: CC(=O)N[C@@H](CCCCNC(=O)CSCCNC(=O)CCNC(=O)[C@H](O)C(C)(C)COP(=O)(O)OP(=O)(O)OC[C@H]1O[C@@H](n2cnc3c(N)ncnc32)[C@H](O)[C@@H]1OP(=O)(O)O)C(N)=O [Lys-CoA]
Ki (p300 HAT): 20 nM
